Laboratory results as given in PMC12010006, “Subnanomolar MAS-related G protein-coupled receptor-X2/B2 antagonists with efficacy in human mast cells and disease models” (Signal Transduction and Targeted Therapy, 2025).

Tests used:
[1] = system: muscarinic acetylcholine receptors (mAChRs); assay: Ca2+ assay versus carbachol in LN229-MRGPRX2 cell line; assay type: cell-based, human; conditions: 10 µM, carbachol 100 µM
MRGPRX2 = biological target: T1, MRGPRX2 (Homo sapiens, UniProt Q96LB1); assay: β-hexosaminidase release, primary human skin mast cells; assay type: cell-based
T1 sequence (Q96LB1 1-330): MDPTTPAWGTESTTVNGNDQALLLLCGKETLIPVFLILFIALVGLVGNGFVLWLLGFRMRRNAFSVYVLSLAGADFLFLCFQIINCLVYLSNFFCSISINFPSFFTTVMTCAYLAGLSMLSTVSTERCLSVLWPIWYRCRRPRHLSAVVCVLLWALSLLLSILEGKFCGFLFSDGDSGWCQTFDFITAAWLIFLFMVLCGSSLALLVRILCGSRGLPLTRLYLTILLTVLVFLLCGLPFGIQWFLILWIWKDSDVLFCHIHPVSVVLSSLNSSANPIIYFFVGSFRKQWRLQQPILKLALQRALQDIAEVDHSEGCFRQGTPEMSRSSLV
Experimental: Finally, the effect of the MRGPRX2 antagonist PSB-172656 on MRGPRX2-mediated MC degranulation in primary human skin mast cells isolated from breast skin tissue was investigated. These cells were controlled by flow cytometry for CD117, FcεRI, and MRGPRX2 to ensure their purity (Supplementary Fig. S6), and their functionality was assessed using the MC degranulation β-hexosaminidase release assay (Fig. 6g).
MCs were isolated from breast skin tissue, which was sectioned into strips and digested overnight at 4 °C in 2.4 U/mL dispase type II (Fisher Scientific). […] The purity of the MC cultures was assessed by flow cytometry for CD117 and FcεRI (Miltenyi) and exceeded 95%. […]
For β-hexosaminidase release assays, MCs were fed the day before stimulation with the medium. […] The reaction was stopped by adding 100 µL of sodium carbonate buffer (pH 10.7), and fluorescence was measured at 460 nm and excitation at 355 nm for 0.1 s. The percentage of β-hexosaminidase release was calculated as: […] × 100. […]

Structure (SMILES) | inhibition of signal induced by carbachol [1] | inhibition at 1.25 µM (MRGPRX2; lowest tested concentration 1.25 µM, versus CST-14, read-out: inhibition of β-hexosaminidase release in human skin MCs) [%] | effect on MC degranulation in primary human skin mast cells (MRGPRX2; versus CST-14 (1 µM))
CCCc1c(C)[nH]c2nc3ccccc3n2c1=O [Compound 1, 2-methyl-3-propylbenzo[4,5]imidazo[1,2-a]pyrimidin-4(1H)-one] | did not inhibit |  | 
CCc1c(C(C)C)[nH]c2nc3cc(F)c(F)cc3n2c1=O [Compound 24, 3-ethyl-7,8-difluoro-2-isopropylbenzo[4,5]imidazo [1,2-a] pyrimidin-4(1H)-one] |  | > 50 | inhibited MC degranulation in response to CST-14 exposure (1 µM) in a concentration-dependent manner
